Assay results published in BigSolDB 2.1.

O=C(Oc1ccccc1)c1ccccc1O
solubility (mole fraction)
Settings	in ethanol	in isobutanol	in isopropanol	in methanol	in n-butanol	in n-propanol	in sec-butanol
283.15 K	0.0226	0.0185	0.0169	0.0162	0.0337	0.0272	0.0381
288.15 K	0.0361	0.0288	0.0273	0.0251	0.0511	0.043	0.0602
293.15 K	0.0647	0.0517	0.0487	0.0459	0.0908	0.0756	0.105
298.15 K	0.127	0.112	0.101	0.0946	0.182	0.152	0.201
303.15 K	0.289	0.279	0.275	0.274	0.34	0.33	0.398
308.15 K	0.715	0.709	0.702	0.694	0.75	0.718	0.752
